Data published in article PMC3479967 (Evidence-based Complementary and Alternative Medicine : eCAM, 2012).

What was measured:
UGT1A6 = target: T1, UGT1A6 (Homo sapiens, UniProt P19224); assay: Inhibition of recombinant UGT1A6 activity (4-MU glucuronidation)
T1 sequence (P19224 27-532): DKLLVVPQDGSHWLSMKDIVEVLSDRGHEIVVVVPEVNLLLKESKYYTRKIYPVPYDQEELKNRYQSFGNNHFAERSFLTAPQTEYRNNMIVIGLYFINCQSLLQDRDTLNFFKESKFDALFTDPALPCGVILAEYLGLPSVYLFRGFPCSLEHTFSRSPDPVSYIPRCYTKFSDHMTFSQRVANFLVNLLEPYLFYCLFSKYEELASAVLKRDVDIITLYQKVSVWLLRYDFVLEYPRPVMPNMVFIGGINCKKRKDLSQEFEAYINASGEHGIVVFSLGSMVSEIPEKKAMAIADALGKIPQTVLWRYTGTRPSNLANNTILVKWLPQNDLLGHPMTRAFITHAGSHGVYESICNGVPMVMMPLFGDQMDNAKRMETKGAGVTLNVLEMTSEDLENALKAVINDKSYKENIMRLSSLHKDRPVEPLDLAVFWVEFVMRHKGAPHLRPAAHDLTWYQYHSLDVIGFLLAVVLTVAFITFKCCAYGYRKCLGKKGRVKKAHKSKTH
Description: (§1) A panel of recombinant human UGT supersomes (UGT1A1, UGT1A3, UGT1A4, UGT1A6, UGT1A7, UGT1A8, UGT1A9, UGT1A10, UGT2B4, UGT2B7, UGT2B15, and UGT2B17) expressed in baculovirus-infected insect cells were purchased from BD Gentest Corp. (Woburn, MA, USA).
(§2) 4-MU, a nonselective substrate of UGTs, was used as probe substrate for all UGTs except UGT1A4. Incubations with each individual enzyme were conducted using conditions previously described. There was a 5 min preincubation step at 37°C before the reaction was started by addition of UDPGA. The incubation mixtures were then centrifuged at 20,500 ×g for 15 min to obtain the supernatant. Aliquots (20 μL) were then analyzed by HPLC. The HPLC system (SHIMADZU, Kyoto, Japan) consisted of an SCL-10A system controller, two LC-10AT pumps, a SIL-10A auto injector, and a SPD-10AVP UV detector. Chromatographic separation was achieved using a Kromasil ODS column (4.6 × 150 mm I.D., 5 μm particle size) at a flow rate of 1 mL/min and UV detection at 316 nm. The mobile phase consisted of 10 mM KH2PO4, pH 2.7 (A) and acetonitrile (B). The following gradient was applied at a flow rate of 1 mL/min: 0–4 min 80% A and 20% B, 4.1–8 min 50% A and 50% B, 8.1–12 min, 30% A and 70% B. All experiments were performed in two independent experiments in duplicate.
(§3) A typical incubation mixture contained recombinant human UGTs, 5 mM MgCl2, 5 mM UDPGA, 50 μg/mg protein alamethicin, 50 mM Tris-HCl buffer (pH 7.4), and various probe substrates of UGTs in the absence or presence of different concentrations of inhibitors. […] The final concentration of DMSO in the incubation system was 1% (v/v). […]
(§4) Inhibition data from experiments were graphically represented by Dixon plots. K i values were calculated by nonlinear regression using the equations for competitive inhibition (1), noncompetitive inhibition (2), or mixed inhibition (3), [22] […] The type of inhibition was determined from the enzyme inhibition models. Goodness of fit to kinetic and inhibition models was assessed from the F statistic, r ^2 values, parameter standard error estimates, and 95% confidence intervals. […]

UGT1A10 = target: T2, UGT1A10 (Homo sapiens, UniProt Q9HAW8); assay: Inhibition of recombinant UGT1A10 activity (4-MU glucuronidation)
T2 sequence (Q9HAW8 26-530): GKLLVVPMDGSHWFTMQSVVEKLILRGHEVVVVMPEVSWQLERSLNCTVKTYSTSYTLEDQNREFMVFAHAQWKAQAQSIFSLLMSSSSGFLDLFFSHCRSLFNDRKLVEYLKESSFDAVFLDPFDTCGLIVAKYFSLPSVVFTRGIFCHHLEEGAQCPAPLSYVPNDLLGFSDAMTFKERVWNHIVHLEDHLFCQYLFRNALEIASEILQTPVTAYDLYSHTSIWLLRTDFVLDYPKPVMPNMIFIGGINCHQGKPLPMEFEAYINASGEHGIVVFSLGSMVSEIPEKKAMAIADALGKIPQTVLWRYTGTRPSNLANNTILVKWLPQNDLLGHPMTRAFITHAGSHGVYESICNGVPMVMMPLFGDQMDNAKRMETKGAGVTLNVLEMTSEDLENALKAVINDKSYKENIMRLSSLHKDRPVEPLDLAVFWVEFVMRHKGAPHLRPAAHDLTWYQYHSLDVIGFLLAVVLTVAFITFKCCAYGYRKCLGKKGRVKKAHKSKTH
Description: as §1, §2, §3, §4

Row | IC50 (UGT1A6) [µM] | IC50 (UGT1A10) [µM] | Structure (SMILES)
1 | > 100 | > 100 | COc1ccc(-c2oc3c(CC=C(C)C)c(O[C@@H]4O[C@H](CO)[C@@H](O)[C@H](O)[C@H]4O)cc(O)c3c(=O)c2O)cc1 [Icariside I]
2 | > 100 | > 100 | COc1ccc(-c2oc3c(CC=C(C)C)c(O)cc(O)c3c(=O)c2O)cc1 [Icaritin]

Row | Structure (SMILES) | IC50 (UGT1A6) [µM] | IC50 (UGT1A10) [µM]
3 | COc1ccc(-c2oc3c(CC=C(C)C)c(O[C@@H]4O[C@H](CO)[C@@H](O)[C@H](O)[C@H]4O)cc(O)c3c(=O)c2O[C@@H]2O[C@@H](C)[C@H](O)[C@@H](O)[C@H]2O)cc1 [Icariin] | > 100 | > 100
